Laboratory results from PubChem BioAssay AID1963846 (Molecular Pharmacology Branch, DTP, NCI, 2024).

Test system: 454973-116-R2-J3-PDC complex spheroid viability
Assay: Anticancer human tumor 454973-116-R2-J3-PDC patient-derived pancreatic carcinoma cell line growth inhibition [POLQ]
Details: for IC50: curve of first compound; for viability, T/C: stronger effect = lower value
Method in brief: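 Three-cell-type spheroids modelling solid tumor plus stroma served as the readout system; POL inhibitors were tested individually and in combination, concentration ranges set by clinical Cmax where known.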

[1] = second compound 0.0316 µM, first compound 0.0316 µM
[2] = second compound 0.0316 µM, first compound 0.1 µM
[3] = second compound 0.0316 µM, first compound 0.316 µM
[4] = second compound 0.0316 µM, first compound 1 µM
[5] = second compound 0.0316 µM, first compound 3.16 µM
[6] = second compound 0.0316 µM, first compound 10 µM
[7] = second compound 0.1 µM, first compound 0.0316 µM
[8] = second compound 0.1 µM, first compound 0.1 µM
[9] = second compound 0.1 µM, first compound 0.316 µM
[10] = second compound 0.1 µM, first compound 1 µM
[11] = second compound 0.1 µM, first compound 3.16 µM
[12] = second compound 0.1 µM, first compound 10 µM
[13] = second compound 0.316 µM, first compound 0.0316 µM
[14] = second compound 0.316 µM, first compound 0.1 µM
[15] = second compound 0.316 µM, first compound 0.316 µM
[16] = second compound 0.316 µM, first compound 1 µM
[17] = second compound 0.316 µM, first compound 3.16 µM
[18] = second compound 0.316 µM, first compound 10 µM
[19] = second compound 1 µM, first compound 0.0316 µM
[20] = second compound 1 µM, first compound 0.1 µM
[21] = second compound 1 µM, first compound 0.316 µM
[22] = second compound 1 µM, first compound 1 µM
[23] = second compound 1 µM, first compound 3.16 µM
[24] = second compound 1 µM, first compound 10 µM
[25] = second compound 3.16 µM, first compound 0.0316 µM
[26] = second compound 3.16 µM, first compound 0.1 µM
[27] = second compound 3.16 µM, first compound 0.316 µM
[28] = second compound 3.16 µM, first compound 1 µM
[29] = second compound 3.16 µM, first compound 3.16 µM
[30] = second compound 3.16 µM, first compound 10 µM
[31] = second compound 10 µM, first compound 0.0316 µM
[32] = second compound 10 µM, first compound 0.1 µM
[33] = second compound 10 µM, first compound 0.316 µM
[34] = second compound 10 µM, first compound 1 µM
[35] = second compound 10 µM, first compound 3.16 µM
[36] = second compound 10 µM, first compound 10 µM
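Also: spheroids exposed to drugs for seven days before measurement.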
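For viability, T/C in this document: percent viability relative to DMSO vehicle control wells taken as 100%.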

`CCc1cc2c(N3CCc4c(cc(Cn5ccnc5)cc4-c4cn(C)nc4C(F)(F)F)C3=O)ccnc2c(OC)n1` + Cc1cccc(N(C)C(=O)C2C(O)CCN2c2nc(C)cc(C(F)(F)F)c2C#N)c1 showed an IC50 (second compound 0.0316 µM) greater than 10 µM, an IC50 (second compound 0.1 µM) greater than 10 µM and an IC50 (second compound 0.316 µM) greater than 10 µM. It also gave an IC50 (second compound 1 µM) greater than 10 µM, an IC50 (second compound 3.16 µM) greater than 10 µM and an IC50 (second compound 10 µM) greater than 10 µM. It also gave a viability, T/C [1] of 89.3%, a viability, T/C [2] of 86.2% and a viability, T/C [3] of 93.7%. For the same compound, the viability, T/C [4] was 77.8%, the viability, T/C [5] was 82.2% and the viability, T/C [6] was 62%. The viability, T/C [7] was 102%, the viability, T/C [8] was 86% and the viability, T/C [9] was 82%. It also gave a viability, T/C [10] of 85.9%, a viability, T/C [11] of 69.3% and a viability, T/C [12] of 62.1%. The viability, T/C [13] was 94%, the viability, T/C [14] was 89% and the viability, T/C [15] was 84.4%. It also gave a viability, T/C [16] of 83.4%, a viability, T/C [17] of 74% and a viability, T/C [18] of 61.5%. It also gave a viability, T/C [19] of 95.2%, a viability, T/C [20] of 85.2% and a viability, T/C [21] of 96%. For the same compound, the viability, T/C [22] was 78.4%, the viability, T/C [23] was 80.8% and the viability, T/C [24] was 61.7%. It also gave a viability, T/C [25] of 97.8%, a viability, T/C [26] of 97.8% and a viability, T/C [27] of 91.2%. It also gave a viability, T/C [28] of 74%, a viability, T/C [29] of 72.2% and a viability, T/C [30] of 57.3%. The viability, T/C [31] was 91.3%, the viability, T/C [32] was 87.5% and the viability, T/C [33] was 72.1%. It also gave a viability, T/C [34] of 74%, a viability, T/C [35] of 70.3% and a viability, T/C [36] of 55.8%.
`COc1cc2cc(C(=O)CCC(=O)O)sc2cc1OC` + Cc1cccc(N(C)C(=O)C2C(O)CCN2c2nc(C)cc(C(F)(F)F)c2C#N)c1 gave an IC50 (second compound 0.0316 µM) greater than 10 µM, an IC50 (second compound 0.1 µM) greater than 10 µM and an IC50 (second compound 0.316 µM) greater than 10 µM. For the same compound, the IC50 (second compound 1 µM) was greater than 10 µM, the IC50 (second compound 3.16 µM) was greater than 10 µM and the IC50 (second compound 10 µM) was greater than 10 µM. It also gave a viability, T/C [1] of 103%, a viability, T/C [2] of 107% and a viability, T/C [3] of 107%. It also gave a viability, T/C [4] of 102%, a viability, T/C [5] of 106% and a viability, T/C [6] of 97%. For the same compound, the viability, T/C [7] was 105%, the viability, T/C [8] was 98.1% and the viability, T/C [9] was 95.7%. It also gave a viability, T/C [10] of 98%, a viability, T/C [11] of 92.6% and a viability, T/C [12] of 88.7%. For the same compound, the viability, T/C [13] was 93.8%, the viability, T/C [14] was 104% and the viability, T/C [15] was 96.2%. The viability, T/C [16] was 110%, the viability, T/C [17] was 109% and the viability, T/C [18] was 93.7%. The viability, T/C [19] was 105%, the viability, T/C [20] was 102% and the viability, T/C [21] was 99%. It also gave a viability, T/C [22] of 102%, a viability, T/C [23] of 105% and a viability, T/C [24] of 93.7%. The viability, T/C [25] was 103%, the viability, T/C [26] was 97.9% and the viability, T/C [27] was 96.5%. It also gave a viability, T/C [28] of 100%, a viability, T/C [29] of 98.9% and a viability, T/C [30] of 95.5%. The viability, T/C [31] was 97.7%, the viability, T/C [32] was 98.8% and the viability, T/C [33] was 94%. For the same compound, the viability, T/C [34] was 111%, the viability, T/C [35] was 102% and the viability, T/C [36] was 90.8%.
For `COc1ccc([C@@H](O)c2cc(-c3ncnc4cc(N5CCOCC5)ccc34)c(F)cc2Cl)nn1` + Cc1cccc(N(C)C(=O)C2C(O)CCN2c2nc(C)cc(C(F)(F)F)c2C#N)c1, the IC50 (second compound 0.0316 µM) was greater than 10 µM, the IC50 (second compound 0.1 µM) was greater than 10 µM and the IC50 (second compound 0.316 µM) was greater than 10 µM. It also gave an IC50 (second compound 1 µM) greater than 10 µM, an IC50 (second compound 3.16 µM) greater than 10 µM and an IC50 (second compound 10 µM) greater than 10 µM. The viability, T/C [1] was 105%, the viability, T/C [2] was 114% and the viability, T/C [3] was 101%. For the same compound, the viability, T/C [4] was 92.5%, the viability, T/C [5] was 70.2% and the viability, T/C [6] was 56.4%. It also gave a viability, T/C [7] of 104%, a viability, T/C [8] of 99% and a viability, T/C [9] of 102%. It also gave a viability, T/C [10] of 95.5%, a viability, T/C [11] of 71.1% and a viability, T/C [12] of 58%. It also gave a viability, T/C [13] of 107%, a viability, T/C [14] of 99.8% and a viability, T/C [15] of 103%. The viability, T/C [16] was 91.8%, the viability, T/C [17] was 76.2% and the viability, T/C [18] was 55%. It also gave a viability, T/C [19] of 109%, a viability, T/C [20] of 105% and a viability, T/C [21] of 107%. It also gave a viability, T/C [22] of 87.1%, a viability, T/C [23] of 71.5% and a viability, T/C [24] of 53.3%. It also gave a viability, T/C [25] of 112%, a viability, T/C [26] of 101% and a viability, T/C [27] of 108%. The viability, T/C [28] was 87.7%, the viability, T/C [29] was 74.7% and the viability, T/C [30] was 58.4%. For the same compound, the viability, T/C [31] was 112%, the viability, T/C [32] was 99.9% and the viability, T/C [33] was 99.3%. For the same compound, the viability, T/C [34] was 84.5%, the viability, T/C [35] was 64.7% and the viability, T/C [36] was 59.8%.
For `O=C(Nc1ccc(O)c(NS(=O)(=O)c2ccc(F)cc2)c1)c1ccc(-c2ccccc2)cc1` + Cc1cccc(N(C)C(=O)C2C(O)CCN2c2nc(C)cc(C(F)(F)F)c2C#N)c1, the IC50 (second compound 0.0316 µM) was greater than 10 µM, the IC50 (second compound 0.1 µM) was greater than 10 µM and the IC50 (second compound 0.316 µM) was greater than 10 µM. For the same compound, the IC50 (second compound 1 µM) was greater than 10 µM, the IC50 (second compound 3.16 µM) was greater than 10 µM and the IC50 (second compound 10 µM) was greater than 10 µM. For the same compound, the viability, T/C [1] was 98.1%, the viability, T/C [2] was 108% and the viability, T/C [3] was 87.1%. The viability, T/C [4] was 100%, the viability, T/C [5] was 114% and the viability, T/C [6] was 82.2%. The viability, T/C [7] was 96.8%, the viability, T/C [8] was 97.2% and the viability, T/C [9] was 101%. For the same compound, the viability, T/C [10] was 111%, the viability, T/C [11] was 102% and the viability, T/C [12] was 85.1%. It also gave a viability, T/C [13] of 105%, a viability, T/C [14] of 92.7% and a viability, T/C [15] of 102%. It also gave a viability, T/C [16] of 106%, a viability, T/C [17] of 110% and a viability, T/C [18] of 84.9%. The viability, T/C [19] was 98.9%, the viability, T/C [20] was 98.1% and the viability, T/C [21] was 100%. The viability, T/C [22] was 103%, the viability, T/C [23] was 108% and the viability, T/C [24] was 85%. For the same compound, the viability, T/C [25] was 107%, the viability, T/C [26] was 98.2% and the viability, T/C [27] was 98.4%. The viability, T/C [28] was 103%, the viability, T/C [29] was 112% and the viability, T/C [30] was 81.4%. It also gave a viability, T/C [31] of 102%, a viability, T/C [32] of 105% and a viability, T/C [33] of 104%. For the same compound, the viability, T/C [34] was 105%, the viability, T/C [35] was 95.8% and the viability, T/C [36] was 74.3%.
